# Measured values from patent publication US10500166B2, “Methods for the treatment of erectile dysfunction using fispemifene” (QUATRX PHARMACEUTICALS, priority 2007, dated 2019).
# Columns and labels:
# free testosterone = experiment: Example 3 study in hypogonadal men: serum free testosterone measured by equilibrium dialysis (ITT); assay type: in vivo, human
# Experimental: FIG. 6 depicts a graph of the data of the study from Example 3 showing serum free testosterone levels (ng/dL) measured by equilibrium dialysis over time for each of the treatment groups. The bars from left to right for each of the BL (baseline), 2 week, 4 week, and 6 week timepoints (the 6 week timepoint occurred 2 weeks after the discontinuation of study drug at week 4) correspond to the placebo, 100 mg, 200 mg, and 300 mg/day doses, respectively;
# (§1) A randomized, double-blind, placebo controlled, parallel-group study of once-daily doses of fispemifene (100, 200, and 300 mg/day) given for 4 weeks was conducted in a population of hypogonadal men. Subjects were required to meet all of the following inclusion criteria at screening and prior to randomization to be eligible for the study:
# (§2) There were 77 subjects total. The number of subjects randomized to the 100 mg fispemifene, 200 mg fispemifene, 300 mg fispemifene, and placebo arms were 21, 21, 19, and 16, respectively.
# (§3) Subjects were randomly assigned to one of four treatment groups in a 1:1:1:1 ratio: • Treatment A (100 mg): fispemifene 100 mg+placebo+placebo; • Treatment B (200 mg): fispemifene 100 mg+fispemifene 100 mg+placebo; • Treatment C (300 mg): fispemifene 100 mg+fispemifene 100 mg+fispemifene 100 mg; and • Treatment D (Placebo): placebo+placebo+placebo.
# (§4) Subjects took one dose (three capsules) of study medication once a day at home for 4 weeks. Capsules were to be taken in the morning immediately after breakfast, with the exception of the morning of the Week 4 visit. Capsules were not to be taken on the morning of the Week 4 visit because trough plasma levels of fispemifene were determined by a blood sample taken at this visit. Each subject was randomly assigned to treatment with one of the 3 different dose regimens of fispemifene or placebo vehicle. Each subject received a 4 week supply of study drug.
# (§5) Blood samples were taken from the subjects within 1 week prior to dosing with study drug to establish baseline values; after 2 and 4 weeks of randomization; and 2 weeks after the last dose of study drug. Serum was prepared from those samples and used to determine the mean % change from baseline in total testosterone, free testosterone, SHBG (sex hormone-binding globulin), DHT (dihydrotestosterone), E2 (estradiol), LH (luteinizing hormone), FSH (follicle stimulating hormone), and inhibin B.
# 1. Percent change from baseline in free testosterone and calculated free testosterone at Weeks 2, 4, and 6;
# LH (luteinizing hormone) = experiment: Example 3 study in hypogonadal men: serum LH (ITT); assay type: in vivo, human; conditions: for LH, Max / LH, Mean ± SD / LH, Median / LH, Min: Baseline (Visit 2)
# Experimental: as §1, §2, §3, §4, §5
# 3. Percent change from baseline in SHBG, DHT, E2, LH, FSH, inhibin B, and testosterone/E2 ratio at Weeks 2, 4, and 6.
# [1] = 100 mg/day, Week 6 (2 weeks after discontinuation)
# [2] = 200 mg/day, Week 6 (2 weeks after discontinuation)
# [3] = 300 mg/day, Week 6 (2 weeks after discontinuation)
# [4] = 100 mg/day, to Week 6 (2 weeks after discontinuation)
# [5] = 200 mg/day, to Week 6 (2 weeks after discontinuation)
# [6] = 300 mg/day, to Week 6 (2 weeks after discontinuation)
smiles,measurement,setting,value
"OCCOCCOc1ccc(/C(=C(/CCCl)c2ccccc2)c2ccccc2)cc1 [Fispemifene, (Z)-2-{2-[4-(4-Chloro-1,2-diphenylbut-1-enyl)phenoxy]ethoxy}ethanol]","Free Testosterone, Max","free testosterone; 100 mg/day, Baseline (Visit 2)",12.20 ng/dL
same,"Free Testosterone, Mean ± SD","free testosterone; 100 mg/day, Baseline (Visit 2)",8.35 ± 2.536 ng/dL
same,"Free Testosterone, Median","free testosterone; 100 mg/day, Baseline (Visit 2)",8.40 ng/dL
same,"Free Testosterone, Min","free testosterone; 100 mg/day, Baseline (Visit 2)",3.20 ng/dL
same,"Free Testosterone, Max","free testosterone; 100 mg/day, Week 2",17.7 ng/dL
same,"Free Testosterone, Mean ± SD","free testosterone; 100 mg/day, Week 2",11.6 ± 3.93 ng/dL
same,"Free Testosterone, Median","free testosterone; 100 mg/day, Week 2",10.3 ng/dL
same,"Free Testosterone, Min","free testosterone; 100 mg/day, Week 2",5.7 ng/dL
same,"Free Testosterone, Max","free testosterone; 100 mg/day, Week 4",18.2 ng/dL
same,"Free Testosterone, Mean ± SD","free testosterone; 100 mg/day, Week 4",11.3 ± 3.40 ng/dL
same,"Free Testosterone, Median","free testosterone; 100 mg/day, Week 4",10.8 ng/dL
same,"Free Testosterone, Min","free testosterone; 100 mg/day, Week 4",6.4 ng/dL
same,"Free Testosterone, Max",free testosterone; [1],13.30 ng/dL
same,"Free Testosterone, Mean ± SD",free testosterone; [1],8.93 ± 0.023 ng/dL
same,"Free Testosterone, Median",free testosterone; [1],9.80 ng/dL
same,"Free Testosterone, Min",free testosterone; [1],4.90 ng/dL
same,"Free Testosterone, % Change from Baseline, Mean ± SD","free testosterone; 100 mg/day, to Week 2",0.4 ± 0.00387%
same,"Free Testosterone, Max","free testosterone; 200 mg/day, Baseline (Visit 2)",15.90 ng/dL
same,"Free Testosterone, Mean ± SD","free testosterone; 200 mg/day, Baseline (Visit 2)",8.48 ± 3.043 ng/dL
same,"Free Testosterone, Median","free testosterone; 200 mg/day, Baseline (Visit 2)",8.50 ng/dL
same,"Free Testosterone, Min","free testosterone; 200 mg/day, Baseline (Visit 2)",4.30 ng/dL
same,"Free Testosterone, Max","free testosterone; 200 mg/day, Week 2",16.4 ng/dL
same,"Free Testosterone, Mean ± SD","free testosterone; 200 mg/day, Week 2",10.6 ± 3.52 ng/dL
same,"Free Testosterone, Median","free testosterone; 200 mg/day, Week 2",10.0 ng/dL
same,"Free Testosterone, Min","free testosterone; 200 mg/day, Week 2",4.8 ng/dL
same,"Free Testosterone, Max","free testosterone; 200 mg/day, Week 4",19.4 ng/dL
same,"Free Testosterone, Mean ± SD","free testosterone; 200 mg/day, Week 4",11.8 ± 3.80 ng/dL
same,"Free Testosterone, Median","free testosterone; 200 mg/day, Week 4",12.2 ng/dL
same,"Free Testosterone, Min","free testosterone; 200 mg/day, Week 4",5.2 ng/dL
same,"Free Testosterone, Max",free testosterone; [2],16.80 ng/dL
same,"Free Testosterone, Mean ± SD",free testosterone; [2],9.10 ± 3.307 ng/dL
same,"Free Testosterone, Median",free testosterone; [2],8.00 ng/dL
same,"Free Testosterone, Min",free testosterone; [2],5.40 ng/dL
same,"Free Testosterone, Max","free testosterone; 300 mg/day, Baseline (Visit 2)",12.30 ng/dL
same,"Free Testosterone, Mean ± SD","free testosterone; 300 mg/day, Baseline (Visit 2)",8.19 ± 2.966 ng/dL
same,"Free Testosterone, Median","free testosterone; 300 mg/day, Baseline (Visit 2)",8.20 ng/dL
same,"Free Testosterone, Max","free testosterone; 300 mg/day, Week 2",22.0 ng/dL
same,"Free Testosterone, Mean ± SD","free testosterone; 300 mg/day, Week 2",12.1 ± 4.96 ng/dL
same,"Free Testosterone, Median","free testosterone; 300 mg/day, Week 2",12.9 ng/dL
same,"Free Testosterone, Min","free testosterone; 300 mg/day, Week 2",0.2 ng/dL
same,"Free Testosterone, Max","free testosterone; 300 mg/day, Week 4",21.2 ng/dL
same,"Free Testosterone, Mean ± SD","free testosterone; 300 mg/day, Week 4",12.5 ± 5.00 ng/dL
same,"Free Testosterone, Median","free testosterone; 300 mg/day, Week 4",14.0 ng/dL
same,"Free Testosterone, Min","free testosterone; 300 mg/day, Week 4",0.1 ng/dL
same,"Free Testosterone, Max",free testosterone; [3],17.30 ng/dL
same,"Free Testosterone, Mean ± SD",free testosterone; [3],9.30 ± 3.567 ng/dL
same,"Free Testosterone, Median",free testosterone; [3],9.80 ng/dL
same,"Free Testosterone, Min",free testosterone; [3],0.30 ng/dL
same,"LH, Max",LH (luteinizing hormone); 100 mg/day,13.50 IU/L
same,"LH, Mean ± SD",LH (luteinizing hormone); 100 mg/day,4.43 ± 2.438 IU/L
same,"LH, Median",LH (luteinizing hormone); 100 mg/day,4.10 IU/L
same,"LH, Min",LH (luteinizing hormone); 100 mg/day,1.50 IU/L
same,"LH, % Change from Baseline, Max","LH (luteinizing hormone); 100 mg/day, to Week 2",141%
same,"LH, % Change from Baseline, Mean ± SD","LH (luteinizing hormone); 100 mg/day, to Week 2",0.39 ± 0.00496%
same,"LH, % Change from Baseline, Median","LH (luteinizing hormone); 100 mg/day, to Week 2",29%
same,"LH, % Change from Baseline, Max","LH (luteinizing hormone); 100 mg/day, to Week 4",203%
same,"LH, % Change from Baseline, Median","LH (luteinizing hormone); 100 mg/day, to Week 4",49%
same,"LH, % Change from Baseline, Max",LH (luteinizing hormone); [4],100%
same,"LH, % Change from Baseline, Median",LH (luteinizing hormone); [4],0%
same,"LH, Max",LH (luteinizing hormone); 200 mg/day,11.60 IU/L
same,"LH, Mean ± SD",LH (luteinizing hormone); 200 mg/day,4.25 ± 2.028 IU/L
same,"LH, Median",LH (luteinizing hormone); 200 mg/day,3.60 IU/L
same,"LH, Min",LH (luteinizing hormone); 200 mg/day,1.00 IU/L
same,"LH, % Change from Baseline, Max","LH (luteinizing hormone); 200 mg/day, to Week 2",123%
same,"LH, % Change from Baseline, Median","LH (luteinizing hormone); 200 mg/day, to Week 2",54%
same,"LH, % Change from Baseline, Max","LH (luteinizing hormone); 200 mg/day, to Week 4",137%
same,"LH, % Change from Baseline, Median","LH (luteinizing hormone); 200 mg/day, to Week 4",52%
same,"LH, % Change from Baseline, Max",LH (luteinizing hormone); [5],80%
same,"LH, % Change from Baseline, Median",LH (luteinizing hormone); [5],19%
same,"LH, Max",LH (luteinizing hormone); 300 mg/day,8.00 IU/L
same,"LH, Mean ± SD",LH (luteinizing hormone); 300 mg/day,3.62 ± 1.506 IU/L
same,"LH, Median",LH (luteinizing hormone); 300 mg/day,3.20 IU/L
same,"LH, Min",LH (luteinizing hormone); 300 mg/day,1.90 IU/L
same,"LH, % Change from Baseline, Max","LH (luteinizing hormone); 300 mg/day, to Week 2",134%
same,"LH, % Change from Baseline, Median","LH (luteinizing hormone); 300 mg/day, to Week 2",63%
same,"LH, % Change from Baseline, Max","LH (luteinizing hormone); 300 mg/day, to Week 4",178%
same,"LH, % Change from Baseline, Median","LH (luteinizing hormone); 300 mg/day, to Week 4",42%
same,"LH, % Change from Baseline, Max",LH (luteinizing hormone); [6],84%
same,"LH, % Change from Baseline, Median",LH (luteinizing hormone); [6],19%
same,effect on serum LH levels,"LH (luteinizing hormone); hypogonadal men, 100-300 mg/day for 4 weeks",increased
